The source of these data is patent US20250144094A1 (Erasca, Inc., priority 2021, published 2025).

This assay addresses Recombinant human ULK1 (1-649) (Homo sapiens (Human), UniProt O75385). The assay is described as follows: ULK1 ADP Glo kinase activity assay, new method (ULKtide peptide substrate). To be noted: 25° C., 40 minutes, read-out: ULK1 biochemical IC50. The method, boiled down:
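GST-tagged human ULK1 (1-649) from Sf9 cells was reacted with ULKtide peptide and ATP for 40 min at 25 °C across 12-point compound dilutions from 10 μM. ADP formed was quantified by ADP-Glo luminescence; IC50 came from four-parameter fits relative to DMSO controls.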

Sequence of Recombinant human ULK1 (1-649) (O75385 1-649): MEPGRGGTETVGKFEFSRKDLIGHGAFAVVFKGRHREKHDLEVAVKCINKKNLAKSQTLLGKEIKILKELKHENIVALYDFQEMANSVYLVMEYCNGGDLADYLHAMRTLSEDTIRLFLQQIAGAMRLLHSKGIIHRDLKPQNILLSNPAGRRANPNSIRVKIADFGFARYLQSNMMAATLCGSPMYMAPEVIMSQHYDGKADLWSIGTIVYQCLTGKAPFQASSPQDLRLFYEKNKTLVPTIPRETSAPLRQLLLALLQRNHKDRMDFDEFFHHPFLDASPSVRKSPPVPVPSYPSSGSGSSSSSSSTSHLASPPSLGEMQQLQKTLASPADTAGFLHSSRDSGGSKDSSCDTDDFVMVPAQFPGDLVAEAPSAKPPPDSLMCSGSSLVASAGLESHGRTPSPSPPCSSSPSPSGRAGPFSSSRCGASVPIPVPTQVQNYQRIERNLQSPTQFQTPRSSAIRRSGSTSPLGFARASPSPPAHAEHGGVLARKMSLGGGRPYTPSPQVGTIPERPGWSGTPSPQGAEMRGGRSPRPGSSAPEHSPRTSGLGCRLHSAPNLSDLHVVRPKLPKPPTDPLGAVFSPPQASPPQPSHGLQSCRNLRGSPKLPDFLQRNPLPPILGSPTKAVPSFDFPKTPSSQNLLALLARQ

As for `C[C@@H]1CN(c2ccc(Nc3ncc(C(F)(F)F)c(-c4cc5c(s4)C(=O)N(C4COC4)CCS5(=O)=O)n3)c(C3CC3)c2)CCN1` [Example 315, (R)-7-(2-((2-cyclopropyl-4-(3-methylpiperazin-1-yl)phenyl)amino)-5-(trifluoromethyl)pyrimidin-4-yl)-4-(oxetan-3-yl)-3,4-dihydrothieno[2,3-f][1,4]thiazepin-5(2H)-one 1,1-dioxide], the IC50 was ≤ 5 nM.

As to `CN1CCc2cc(Nc3ncc(C(F)(F)F)c(-c4cc5c(s4)C(=O)N(CC4CC4)CCS5(=O)=O)n3)c(Cl)cc2C1` [Example 154, 7-(2-((7-chloro-2-methyl-1,2,3,4-tetrahydroisoquinolin-6-yl)amino)-5-(trifluoromethyl)pyrimidin-4-yl)-4-(cyclopropylmethyl)-3,4-dihydrothieno[2,3-f][1,4]thiazepin-5(2H)-one 1,1-dioxide], the IC50 was ≤ 5 nM.

Regarding `O=C1c2sc(-c3nc(Nc4ccc(N5C[C@H]6CC[C@@H](C5)N6)cc4C4CC4)ncc3C(F)(F)F)cc2S(=O)(=O)CCN1C1COC1` [Example 318, 7-(2-((4-((1R,5S)-3,8-diazabicyclo[3.2.1]octan-3-yl)-2-cyclopropylphenyl)amino)-5-(trifluoromethyl)pyrimidin-4-yl)-4-(oxetan-3-yl)-3,4-dihydrothieno[2,3-f][1,4]thiazepin-5(2H)-one 1,1-dioxide], the IC50 is ≤ 5 nM.

On to `CN1C[C@H]2C[C@@H]1CN2c1ccc(Nc2ncc(C(F)(F)F)c(-c3cc4c(s3)C(=O)N(C3CC3)CCS4(=O)=O)n2)c(C2CC2)c1` [Example 330, 4-cyclopropyl-7-(2-((2-cyclopropyl-4-((1R,4R)-5-methyl-2,5-diazabicyclo[2.2.1]heptan-2-yl)phenyl)amino)-5-(trifluoromethyl)pyrimidin-4-yl)-3,4-dihydrothieno[2,3-f][1,4]thiazepin-5(2H)-one 1,1-dioxide], for which the half-maximal inhibitory concentration (IC50) was ≤ 5 nM.

On to `CCc1cc(N2C[C@H](C)N[C@@H](C)C2)ccc1Nc1ncc(C(F)(F)F)c(-c2cc3c(s2)C(=O)N(C2COC2)CCS3(=O)=O)n1` [Example 370, 7-(2-((4-((3S,5S)-3,5-dimethylpiperazin-1-yl)-2-ethylphenyl)amino)-5-(trifluoromethyl)pyrimidin-4-yl)-4-(oxetan-3-yl)-3,4-dihydrothieno[2,3-f][1,4]thiazepin-5(2H)-one 1,1-dioxide], for which the IC50 is ≤ 5 nM.

With `CN1CCS(=O)(=O)c2cc(-c3nc(Nc4ccc5c(c4C4CC4)CNC5)ncc3C(F)(F)F)sc2C1=O` [Example 170, 7-(2-((4-cyclopropylisoindolin-5-yl)amino)-5-(trifluoromethyl)pyrimidin-4-yl)-4-methyl-3,4-dihydrothieno[2,3-f][1,4]thiazepin-5(2H)-one 1,1-dioxide], the IC50 fell in the range of 10 to 50 nM.

For `C[C@@H]1CN(c2ccc(Nc3ncc(C(F)(F)F)c(-c4cc5c(s4)C(=O)N(C4CC4)CCS5(=O)=O)n3)c(C3CC3)c2)CCN1C` [Example 309, (R)-4-cyclopropyl-7-(2-((2-cyclopropyl-4-(3,4-dimethylpiperazin-1-yl)phenyl)amino)-5-(trifluoromethyl)pyrimidin-4-yl)-3,4-dihydrothieno[2,3-f][1,4]thiazepin-5(2H)-one 1,1-dioxide], the IC50 is ≤ 5 nM.

Take `CCc1cc(N2C[C@@H]3C[C@H]2CN3)ccc1Nc1ncc(C(F)(F)F)c(-c2cc3c(s2)C(=O)N(C2CC2)CCS3(=O)=O)n1` [Example 319, 7-(2-((4-((1S,4S)-2,5-diazabicyclo[2.2.1]heptan-2-yl)-2-ethylphenyl)amino)-5-(trifluoromethyl)pyrimidin-4-yl)-4-cyclopropyl-3,4-dihydrothieno[2,3-f][1,4]thiazepin-5(2H)-one 1,1-dioxide]: the IC50 was ≤ 5 nM.

`O=S1(=O)CCOCc2sc(-c3nc(Nc4cc5c(cc4Cl)CNCC5)ncc3C(F)(F)F)cc21` [Example 163, 7-(2-((7-chloro-1,2,3,4-tetrahydroisoquinolin-6-yl)amino)-5-(trifluoromethyl)pyrimidin-4-yl)-2,3-dihydro-5H-thieno[3,2-e][1,4]oxathiepine 1,1-dioxide]: the IC50 was ≤ 5 nM.

Consider `N#CCN1CCc2cc(Nc3ncc(C(F)(F)F)c(-c4cc5c(s4)C(=O)N(C4CC4)CCS5(=O)=O)n3)c(C3CC3)cc2C1` [Example 276, 2-(7-cyclopropyl-6-((4-(4-cyclopropyl-1,1-dioxido-5-oxo-2,3,4,5-tetrahydrothieno[2,3-f][1,4]thiazepin-7-yl)-5-(trifluoromethyl)pyrimidin-2-yl)amino)-3,4-dihydroisoquinolin-2(1H)-yl)acetonitrile], for which the concentration for half-maximal inhibition (IC50) was in the range of 10 to 50 nM.

For the molecule `CCc1cc2c(cc1Nc1ncc(C(F)(F)F)c(-c3cc4c(s3)C(=O)N(C)CCS4(=O)=O)n1)CNCC2` [Example 212, 7-(2-((6-ethyl-1,2,3,4-tetrahydroisoquinolin-7-yl)amino)-5-(trifluoromethyl)pyrimidin-4-yl)-4-methyl-3,4-dihydrothieno[2,3-f][1,4]thiazepin-5(2H)-one 1,1-dioxide], the IC50 was ≤ 5 nM.

As for `CN1CCS(=O)(=O)c2cc(-c3nc(Nc4cnc(N5C[C@H]6C[C@@H]5CN6)cc4C4CC4)ncc3C(F)(F)F)sc2C1=O` [Example 382, 7-(2-((6-((1R,4R)-2,5-diazabicyclo[2.2.1]heptan-2-yl)-4-cyclopropylpyridin-3-yl)amino)-5-(trifluoromethyl)pyrimidin-4-yl)-4-methyl-3,4-dihydrothieno[2,3-f][1,4]thiazepin-5(2H)-one 1,1-dioxide], the IC50 was ≤ 5 nM.

As to `C[C@H]1CN(c2ccc(Nc3ncc(C(F)(F)F)c(-c4cc5c(s4)C(=O)N(C4COC4)CCS5(=O)=O)n3)c(C3CC3)c2)CCN1C` [Example 342, (S)-7-(2-((2-cyclopropyl-4-(3,4-dimethylpiperazin-1-yl)phenyl)amino)-5-(trifluoromethyl)pyrimidin-4-yl)-4-(oxetan-3-yl)-3,4-dihydrothieno[2,3-f][1,4]thiazepin-5(2H)-one 1,1-dioxide], the IC50 was ≤ 5 nM.

Take `CC1(C)CC(CN2CCc3cc(Nc4ncc(C(F)(F)F)c(-c5cc6c(s5)C(=O)N(C5CC5)CCS6(=O)=O)n4)c(C4CC4)cc3C2)O1` (stereo not shown) [Example 297, 4-Cyclopropyl-7-(2-((7-cyclopropyl-2-((4,4-dimethyloxetan-2-yl)methyl)-1,2,3,4-tetrahydroisoquinolin-6-yl)amino)-5-(trifluoromethyl)pyrimidin-4-yl)-3,4-dihydrothieno[2,3-f][1,4]thiazepin-5(2H)-one 1,1-dioxide]: the IC50 was ≤ 5 nM.

`CN1CCS(=O)(=O)c2cc(-c3nc(Nc4cc5c(cc4Cl)CNC5)ncc3C(F)(F)F)sc2C1=O` [Example 164, 7-(2-((6-chloroisoindolin-5-yl)amino)-5-(trifluoromethyl)pyrimidin-4-yl)-4-methyl-3,4-dihydrothieno[2,3-f][1,4]thiazepin-5(2H)-one 1,1-dioxide]: the concentration for half-maximal inhibition (IC50) is ≤ 5 nM.

As to `O=C1c2sc(-c3nc(Nc4cc5c(cc4C4CC4)CCNC5)ncc3C(F)(F)F)cc2S(=O)(=O)CCN1C1COC1` [Example 270, 7-(2-((6-cyclopropyl-1,2,3,4-tetrahydroisoquinolin-7-yl)amino)-5-(trifluoromethyl)pyrimidin-4-yl)-4-(oxetan-3-yl)-3,4-dihydrothieno[2,3-f][1,4]thiazepin-5(2H)-one 1,1-dioxide], the 50% inhibitory concentration (IC50) was ≤ 5 nM.

With `CN1CCS(=O)(=O)c2cc(-c3nc(Nc4cc5c(cc4Cl)CCNC5)ncc3C(F)(F)F)sc2C1=O` [Example 159, 7-(2-((6-chloro-1,2,3,4-tetrahydroisoquinolin-7-yl)amino)-5-(trifluoromethyl)pyrimidin-4-yl)-4-methyl-3,4-dihydrothieno[2,3-f][1,4]thiazepin-5(2H)-one 1,1-dioxide], the concentration for half-maximal inhibition (IC50) is ≤ 5 nM.

In the case of `C[C@@H]1CN(c2ccc(Nc3ncc(C(F)(F)F)c(-c4cc5c(s4)C(=O)N(C4CC4)CCS5(=O)=O)n3)c(C3CC3)c2)C[C@H](C)N1` [Example 326, 4-cyclopropyl-7-(2-((2-cyclopropyl-4-((3S,5R)-3,5-dimethylpiperazin-1-yl)phenyl)amino)-5-(trifluoromethyl)pyrimidin-4-yl)-3,4-dihydrothieno[2,3-f][1,4]thiazepin-5(2H)-one 1,1-dioxide], the 50% inhibitory concentration (IC50) is ≤ 5 nM.

In the case of `O=C1c2sc(-c3nc(Nc4cc5c(cc4C4CC4)CN(CC4CC4)CC5)ncc3C(F)(F)F)cc2S(=O)(=O)CCN1C1CC1` [Example 235, 4-cyclopropyl-7-(2-((7-cyclopropyl-2-(cyclopropylmethyl)-1,2,3,4-tetrahydroisoquinolin-6-yl)amino)-5-(trifluoromethyl)pyrimidin-4-yl)-3,4-dihydrothieno[2,3-f][1,4]thiazepin-5(2H)-one 1,1-dioxide], the concentration for half-maximal inhibition (IC50) was ≤ 5 nM.

On to `CCc1cc(N2C[C@H]3CC[C@@H](C2)N3C)ccc1Nc1ncc(C(F)(F)F)c(-c2cc3c(s2)C(=O)N(C2COC2)CCS3(=O)=O)n1` [Example 348, 7-(2-((2-ethyl-4-((1R,5S)-8-methyl-3,8-diazabicyclo[3.2.1]octan-3-yl)phenyl)amino)-5-(trifluoromethyl)pyrimidin-4-yl)-4-(oxetan-3-yl)-3,4-dihydrothieno[2,3-f][1,4]thiazepin-5(2H)-one 1,1-dioxide], for which the IC50 was ≤ 5 nM.

For `C[C@@H]1CN(c2ccc(Nc3ncc(C(F)(F)F)c(-c4cc5c(s4)C(=O)N(C4COC4)CCS5(=O)=O)n3)c(C3CC3)c2)C[C@H](C)N1` [Example 350, 7-(2-((2-cyclopropyl-4-((3S,5R)-3,5-dimethylpiperazin-1-yl)phenyl)amino)-5-(trifluoromethyl)pyrimidin-4-yl)-4-(oxetan-3-yl)-3,4-dihydrothieno[2,3-f][1,4]thiazepin-5(2H)-one 1,1-dioxide], the concentration for half-maximal inhibition (IC50) is ≤ 5 nM.

Take `CN1CCS(=O)(=O)c2cc(-c3nc(Nc4ccc(N5CCN(CC6CC6)CC5)cc4C4CC4)ncc3C(F)(F)F)sc2C1=O` [Example 250, 7-(2-((2-cyclopropyl-4-(4-(cyclopropylmethyl)piperazin-1-yl)phenyl)amino)-5-(trifluoromethyl)pyrimidin-4-yl)-4-methyl-3,4-dihydrothieno[2,3-f][1,4]thiazepin-5(2H)-one 1,1-dioxide]: the IC50 is ≤ 5 nM.
